We go through seven molecules from ChEMBL document CHEMBL4431301, “The Medicinal Chemistry of Dengue Virus” (J Med Chem, 2016).

SMILES strings stand for the structures. pEC50, pIC50, pKi: −log10 of the molar value. Where a SMILES comes first, the peptide text is derived from it.

For data set [1], the target named is T1, Genome polyprotein (dengue virus type 2, UniProt P29990). Kind of data set: Inhibition of Dengue virus 2 NS2B-NS3 protease expressed in Escherichia coli BL21(DE3) using Boc-Gly-Arg-Arg-7-amino-4-methylcoumarin as substrate after 10 mins by fluorescence assay.
In data set [2] the test system is dengue virus type 2. Kind of data set: Antiviral activity against Dengue virus 2 infected in african green monkey Vero cells preincubated with cells followed by viral infection measured after 4 days by immunofluorescence staining based fluorescence microscope. Format: functional, organism-based.
Data set [3] deals with T1, Genome polyprotein. The data set is described as follows: Inhibition of Dengue virus 2 GFP/DsRed fused NS2B-NS3 protease co-transfected in HEK293T cells by Western blot analysis. The class given is cell-based.
Data set [4] is described as follows: Selectivity index, ratio of CC50 for human A549 cells to EC50 for Dengue virus 2 infected in human A549 cells. The class given is toxicity, cell-based. The settings on record: read-out: Ratio CC50/EC50.
Data set [5] deals with dengue virus type 2. Kind of data set: Antiviral activity against Dengue virus 2 infected in human A549 cells assessed as decrease in viral envelope protein production after 48 hrs by CFI assay. Format: functional, organism-based. The settings on record: A549, 48 h.
Data set [6] deals with dengue virus type 2. Kind of data set: Antiviral activity against Dengue virus 2 infected in monkey LLC-MK2 cells assessed as reduction in viral infection at 2 to 5 uM by focus forming unit assay. Format: functional. On the set-up: scale not given: the % may be the effect or the level left.
In the next data set the test system is dengue virus type 4. The data set is described as follows: Antiviral activity against Dengue virus 4 infected in monkey LLC-MK2 cells assessed as reduction in viral infection at 2 to 5 uM by focus forming unit assay. The class given is functional. On the set-up: scale not given: the % may be the effect or the level left.
The next data set deals with dengue virus type 1. Kind of data set: Antiviral activity against Dengue virus 1 infected in monkey LLC-MK2 cells assessed as reduction in viral infection at 2 to 5 uM by focus forming unit assay. The class given is functional. On the set-up: scale not given: the % may be the effect or the level left.
The test system of the next data set is dengue virus type 3. Kind of data set: Antiviral activity against Dengue virus 3 infected in monkey LLC-MK2 cells assessed as reduction in viral infection at 2 to 5 uM by focus forming unit assay. The class given is functional. Details: scale not given: the % may be the effect or the level left.
Data set [7] deals with T1, Genome polyprotein. Kind of data set: Inhibition of Dengue virus 3 NS2B-NS3 protease expressed in Escherichia coli using Abz-RRRRSAG-nY-NH2 as substrate preincubated for 20 mins followed by addition of substrate measured after 60 mins by fluorescence assay. On the set-up: species or system dengue virus type 3.
In data set [8] the target is T1, Genome polyprotein. The data set is described as follows: Inhibition of Dengue virus 1 NS2B-NS3 protease expressed in Escherichia coli using Abz-RRRRSAG-nY-NH2 as substrate preincubated for 20 mins followed by addition of substrate measured after 60 mins by fluorescence assay. Details: species or system dengue virus type 1.
The target in data set [9] is T1, Genome polyprotein. The data set is described as follows: Inhibition of Dengue virus 2 NS2B-NS3 protease expressed in Escherichia coli using Abz-RRRRSAG-nY-NH2 as substrate preincubated for 20 mins followed by addition of substrate measured after 60 mins by fluorescence assay.
Data set [10] has as its target DEN4V NS2B-G4SG4NS3 serine protease (Dengue virus type 4, UniProt P09866). The data set is described as follows: Inhibition of Dengue virus 4 NS2B-NS3 protease expressed in Escherichia coli using Abz-RRRRSAG-nY-NH2 as substrate preincubated for 20 mins followed by addition of substrate measured after 60 mins by fluorescence assay.
Data set [11] deals with dengue virus type 2. Kind of data set: Antiviral activity against Dengue virus 2 NGC infected in monkey LLC-MK2 cells preincubated with virus for 1 hr followed by cell infection for 1 hr by focus forming unit assay. Format: functional, organism-based.
Data set [12] has as its target T1, Genome polyprotein. Kind of data set: Inhibition of recombinant Dengue virus 2 S-16803 NS2B-NS3 protease using Bz-nKRRAMC as substrate preincubated with enzyme followed by substrate addition measured after 20 mins by fluorescence assay.
Data set [13] relates to dengue virus type 2. The data set is described as follows: Antiviral activity against Dengue virus 2 infected in human HuH7 cells after 48 hrs by CFI assay. The class given is functional, organism-based. The conditions noted are these: Huh-7, 48 h.
Data set [14] can be described thus: Cytotoxicity against BHK21 cells assessed as cell viability after 48 hrs by Celltiter-Glo luminescent assay. The settings on record: hamster. Format: cell-based, Mesocricetus auratus, BHK-21.
Data set [15] deals with Genome polyprotein (dengue virus type 2) (UniProt P29990). The data set is described as follows: Inhibition of the Dengue virus 2 NS2B-NS3 protease using Bz-nKRR-AMC as substrate at 300 uM preincubated for 15 mins followed by substrate addition measured after 30 mins by fluorescence assay.
A short description of data set [16]: Cytotoxicity against human HuH7 cells assessed as cell viability after 48 hrs by Celltiter-Glo luminescent assay. Format: cell-based, Huh-7.

One may read the pIC50 as −log10 of the IC50, conventionally taken in molar units. One may read the pEC50 as the negative decadic logarithm of the EC50, by convention in mol/L. Regarding `O=C(Nc1nc2cc(O)c(O)cc2s1)c1ccccc1Oc1ccc2cc(O)ccc2c1`, the pIC50 on Genome polyprotein [1] is 5.38; against Genome polyprotein [3], 5.49. Moreover, the pEC50 in the data set on dengue virus type 2 [2] is 6.10.

Regarding `CC(=O)O[C@H]1[C@H]2c3cc4c(cc3CN3CCC(=C[C@@H]1O)[C@H]23)OCO4`, the selectivity ratio in data set [4] was greater than 750. Also, the pEC50 with dengue virus type 2 [5] was 6.40.

Turning to `CC[C@H](C)[C@H](NC(=O)[C@H](C)NC(=O)CNC(=O)[C@H](Cc1ccccc1)NC(=O)[C@@H](NC(=O)[C@H](CCC(N)=O)NC(=O)[C@H](Cc1cnc[nH]1)NC(=O)[C@H](CC(C)C)NC(=O)[C@H](C)NC(=O)[C@H](CCCCN)NC(=O)CNC(=O)[C@@H](NC(=O)[C@H](CO)NC(=O)[C@@H](NC(=O)[C@H](Cc1ccccc1)NC(=O)[C@@H](NC(=O)CNC(=O)CNC(=O)[C@H](CC(C)C)NC(=O)[C@H](CO)NC(=O)CNC(=O)[C@H](Cc1ccccc1)NC(=O)[C@H](CC(=O)O)NC(=O)[C@H](Cc1c[nH]c2ccccc12)NC(=O)[C@H](C)NC(=O)[C@@H](NC(=O)[C@H](CC(=O)O)NC(=O)CNC(=O)[C@H](CC(C)C)NC(=O)[C@@H](NC(=O)[C@H](C)NC(=O)[C@@H](N)CCSC)[C@@H](C)CC)[C@@H](C)O)C(C)C)[C@@H](C)O)[C@@H](C)CC)C(C)C)C(=O)N[C@@H](Cc1ccc(O)cc1)C(=O)O` (H-MAILGDTAWDFGSLGGVFTSIGKALHQVFGAIY-OH), the Activity with dengue virus type 2 [6], in the data set on dengue virus type 4, in the data set on dengue virus type 1 and in the data set on dengue virus type 3 was 50% throughout.

For orientation: pKi means the negative decadic logarithm of the Ki, by convention in mol/L. Turning to `NC(=O)[C@H](Cc1c[nH]c2ccccc12)NC(=O)[C@H](CS)NC(=O)[C@H](Cc1ccc(O)cc1)NC(=O)[C@@H](N)Cc1c[nH]c2ccccc12` (H-WYCW-NH2), the pKi at Genome polyprotein [7] was 4.61; at Genome polyprotein [8], 5.38; at Genome polyprotein [9], 5.32; in [10], 4.95.

Regarding `CC[C@H](C)[C@H](NC(=O)[C@H](CC(C)C)NC(=O)[C@@H](NC(=O)[C@H](Cc1ccccc1)NC(=O)[C@H](Cc1c[nH]c2ccccc12)NC(=O)[C@@H](N)Cc1ccccc1)[C@@H](C)O)C(=O)N[C@@H](CCCCN)C(=O)N[C@H](C(=O)N[C@@H](CCC(N)=O)C(=O)N[C@@H](C)C(=O)N[C@@H](CCCCN)C(=O)N[C@@H](CCC(N)=O)C(=O)N1CCC[C@H]1C(=O)N[C@@H](C)C(=O)N[C@@H](CCCNC(=N)N)C(=O)N[C@@H](Cc1ccc(O)cc1)C(=O)N[C@@H](CCCNC(=N)N)C(=O)N[C@@H](CCCNC(=N)N)C(=O)N[C@@H](Cc1ccccc1)C(=O)N[C@@H](CS)C(=O)O)[C@@H](C)O` (H-FWFTLIKTQAKQPARYRRFC-OH), in the data set with dengue virus type 2 [11], the pIC50 was 5.15.

In the case of `N#C/C(=C\c1ccc(-c2ccc(C(=O)O)cc2)s1)c1nc2cc(Cl)ccc2[nH]1`, the pIC50 at Genome polyprotein [12] was 5.23.

Usually CC50 stands for the concentration giving 50% cytotoxicity. In general, inhibition refers to the relative decrease from the control value, in per cent. `Cc1cc(N2CCN(C)CC2)ccc1NC(=O)c1c2c(nc3ccccc13)CCN(Cc1ccccc1)C2` showed a pEC50 with dengue virus type 2 [13] of 5.30. For the same molecule, the CC50 at 48 h in data set [14] was greater than 300 µM; in [16] it was 55 µM. The molecule further came in with an inhibition in [15] of 85%.
